{"source": "patent US6893813B2", "about": "“Methods for treatment of HIV and other infections using a T cell or viral activator and anti-retroviral combination therapy” (priority 1997, dated 2005)", "key": {"HIV": {"system": "HIV", "experiment": "HIV replication (p24 in culture supernatant) in PBMC cultures without anti-retroviral drugs", "format": "cell-based, human", "conditions": "no anti-retroviral drugs", "excerpt": "(§1) The percent of CD8+ cells in the culture increased with lower concentrations of CD3,8 BSMAB. […] Absent anti-retroviral drugs, this massive activation of HIV will eventually cause a sharp decrease in the CD4+ T cell population."}, "[1]": {"system": "PBMCs isolated from HIV-infected subjects", "experiment": "culture of PBMCs from HIV-infected subjects without anti-retroviral drugs: T cell subsets", "format": "cell-based, human", "conditions": "no anti-retroviral drugs", "excerpt": "as §1"}}, "data": [{"substance": "phytohemagglutinin [PHA]", "values": [{"measurement": "HIV replication (p24 in supernatant)", "setting": "HIV", "result": "induced increased HIV replication"}, {"measurement": "T cell subsets activated", "setting": "[1]", "result": "both CD4+ and CD8+ T cells were activated"}, {"measurement": "selective outgrowth of CD4+ T cells", "setting": "[1]", "result": "No selective outgrowth of the CD4+ T cells occurred"}]}]}
